In ChEMBL document CHEMBL1933065, “Synthesis and antifungal evaluation of pyrido[1,2-a]indole-1,4-diones and benzo[f]pyrido[1,2-a]indole-6,11-diones” (2012):
In brackets after ≈: the same amount, converted by molar mass.

Tests used:
Type in all cases: functional
Cryptococcus neoformans = experiment: Antifungal activity against Cryptococcus neoformans Berkout KCCM 50564 after 1 day by two fold broth dilution method; conditions: Berkout KCCM 50564, 24 h
Aspergillus flavus = experiment: Antifungal activity against Aspergillus flavus KCCM 11899 after 2 days by two fold broth dilution method; conditions: KCCM 11899, 48 h
Candida albicans = experiment: Antifungal activity against Candida albicans Berkout KCCM 50235 after 1 day by standard two fold broth dilution method; conditions: Berkout KCCM 50235, 24 h
Aspergillus niger = experiment: Antifungal activity against Aspergillus niger KCTC 1231 after 2 days by two fold broth dilution method; conditions: KCTC 1231, 48 h
Candida tropicalis = experiment: Antifungal activity against Candida tropicalis Berkout KCCM 50662 after 1 day by two fold broth dilution method; conditions: Berkout KCCM 50662, 24 h
Pichia kudriavzevii = experiment: Antifungal activity against Candida krusei Berkout KCCM 11655 after 1 day by two fold broth dilution method; conditions: Berkout KCCM 11655, 24 h

SMILES	MIC (Cryptococcus neoformans) [µg/mL]	MIC (Aspergillus flavus) [µg/mL]	MIC (Candida albicans) [µg/mL]	MIC (Aspergillus niger) [µg/mL]	MIC (Candida tropicalis) [µg/mL]	MIC (Pichia kudriavzevii) [µg/mL]
COC(=O)c1c2c(n3cc(C)ccc13)C(=O)c1ccccc1C2=O	25 (≈ 78.3 µM)	50 (≈ 157 µM)	25 (≈ 78.3 µM)	25 (≈ 78.3 µM)	> 100	50 (≈ 157 µM)
CCOC(=O)c1c2c(n3cc(C)ccc13)C(=O)c1ccccc1C2=O	12.5 (≈ 37.5 µM)	25 (≈ 75 µM)	12.5 (≈ 37.5 µM)	3.2 (≈ 9.6 µM)	6.3 (≈ 18.9 µM)	25 (≈ 75 µM)
CCc1ccn2c3c(c(C(=O)OC)c2c1)C(=O)C(C)=C(C)C3=O	0.8 (≈ 2.57 µM)	6.3 (≈ 20.2 µM)	3.2 (≈ 10.3 µM)	1.6 (≈ 5.14 µM)	12.5 (≈ 40.1 µM)	25 (≈ 80.3 µM)
CCOC(=O)c1c2c(n3ccc(C#N)cc13)C(=O)C(C)=C(C)C2=O	6.3 (≈ 19.5 µM)	3.2 (≈ 9.93 µM)	3.2 (≈ 9.93 µM)	6.3 (≈ 19.5 µM)	3.2 (≈ 9.93 µM)	6.3 (≈ 19.5 µM)
CC(=O)c1c2c(n3cc(Cl)ccc13)C(=O)C(C)=C(C)C2=O	6.3 (≈ 20.9 µM)	3.2 (≈ 10.6 µM)	6.3 (≈ 20.9 µM)	1.6 (≈ 5.3 µM)	12.5 (≈ 41.4 µM)	3.2 (≈ 10.6 µM)
CCOC(=O)c1c2c(n3ccc(CC)cc13)C(=O)C(C)=C(C)C2=O	6.3 (≈ 19.4 µM)	6.3 (≈ 19.4 µM)	6.3 (≈ 19.4 µM)	12.5 (≈ 38.4 µM)	12.5 (≈ 38.4 µM)	6.3 (≈ 19.4 µM)
CCOC(=O)c1c2c(n3ccc(OC)cc13)C(=O)C(C)=C(C)C2=O	50 (≈ 153 µM)	3.2 (≈ 9.78 µM)	12.5 (≈ 38.2 µM)	3.2 (≈ 9.78 µM)	6.3 (≈ 19.2 µM)	6.3 (≈ 19.2 µM)
CC(=O)c1c2c(n3ccc(C)cc13)C(=O)C(C)=C(C)C2=O	1.6 (≈ 5.69 µM)	3.2 (≈ 11.4 µM)	1.6 (≈ 5.69 µM)	3.2 (≈ 11.4 µM)	6.3 (≈ 22.4 µM)	12.5 (≈ 44.4 µM)
COc1ccc2c(C(C)=O)c3c(n2c1)C(=O)c1ccccc1C3=O	12.5 (≈ 39.1 µM)	12.5 (≈ 39.1 µM)	3.2 (≈ 10 µM)	6.3 (≈ 19.7 µM)	3.2 (≈ 10 µM)	6.3 (≈ 19.7 µM)
COc1ccn2c3c(c(C(C)=O)c2c1)C(=O)C(C)=C(C)C3=O	6.3 (≈ 21.2 µM)	25 (≈ 84.1 µM)	25 (≈ 84.1 µM)	3.2 (≈ 10.8 µM)	25 (≈ 84.1 µM)	3.2 (≈ 10.8 µM)
CCOC(=O)c1c2c(n3ccc(C)cc13)C(=O)C(C)=C(C)C2=O	12.5 (≈ 40.1 µM)	6.3 (≈ 20.2 µM)	6.3 (≈ 20.2 µM)	3.2 (≈ 10.3 µM)	50 (≈ 161 µM)	6.3 (≈ 20.2 µM)
Cc1ccn2c3c(cc2c1)C(=O)c1ccccc1C3=O	6.3 (≈ 24.1 µM)	3.2 (≈ 12.2 µM)	12.5 (≈ 47.8 µM)	50 (≈ 191 µM)	12.5 (≈ 47.8 µM)	6.3 (≈ 24.1 µM)
CCOC(=O)c1c2c(n3ccccc13)C(=O)c1ccccc1C2=O	25 (≈ 78.3 µM)	6.3 (≈ 19.7 µM)	> 100	12.5 (≈ 39.1 µM)	25 (≈ 78.3 µM)	12.5 (≈ 39.1 µM)
CCOC(=O)c1c2c(n3ccc(C)cc13)C(=O)c1ccccc1C2=O	6.3 (≈ 18.9 µM)	25 (≈ 75 µM)	6.3 (≈ 18.9 µM)	12.5 (≈ 37.5 µM)	3.2 (≈ 9.6 µM)	12.5 (≈ 37.5 µM)
Cc1cc[n+](C2=C(Cl)C(=O)c3ccccc3C2=O)cc1.[Cl-]	> 100	> 100	> 100	50	> 100	> 100
COc1ccn2c3c(cc2c1)C(=O)C(C)=C(C)C3=O	1.6 (≈ 6.27 µM)	6.3 (≈ 24.7 µM)	6.3 (≈ 24.7 µM)	12.5 (≈ 49 µM)	6.3 (≈ 24.7 µM)	12.5 (≈ 49 µM)
COC(=O)c1c2c(n3ccc(OC)cc13)C(=O)c1ccccc1C2=O	25 (≈ 74.6 µM)	12.5 (≈ 37.3 µM)	25 (≈ 74.6 µM)	3.2 (≈ 9.54 µM)	50 (≈ 149 µM)	50 (≈ 149 µM)
COc1cc[n+](C2=C(Cl)C(=O)c3ccccc3C2=O)cc1.[Cl-]	50	> 100	> 100	> 100	50	> 100

SMILES	MIC (Cryptococcus neoformans) [µg/mL]	MIC (Aspergillus flavus) [µg/mL]	MIC (Candida albicans) [µg/mL]	MIC (Aspergillus niger) [µg/mL]	MIC (Candida tropicalis) [µg/mL]	MIC (Pichia kudriavzevii) [µg/mL]
CCOC(=O)c1c2c(n3cc(C)ccc13)C(=O)C(C)=C(C)C2=O	3.2 (≈ 10.3 µM)	12.5 (≈ 40.1 µM)	12.5 (≈ 40.1 µM)	25 (≈ 80.3 µM)	12.5 (≈ 40.1 µM)	12.5 (≈ 40.1 µM)
CC1=C(C)C(=O)C([n+]2ccc(C)cc2)=C(Cl)C1=O.[Cl-]	3.2	6.3	12.5	25	6.3	6.3
COC(=O)c1c2c(n3ccc(OC)cc13)C(=O)C(C)=C(C)C2=O	1.6 (≈ 5.11 µM)	25 (≈ 79.8 µM)	6.3 (≈ 20.1 µM)	25 (≈ 79.8 µM)	25 (≈ 79.8 µM)	12.5 (≈ 39.9 µM)
COc1ccn2c3c(cc2c1)C(=O)c1ccccc1C3=O	> 100	6.3 (≈ 22.7 µM)	50 (≈ 180 µM)	25 (≈ 90.2 µM)	25 (≈ 90.2 µM)	> 100
Nc1nc(=O)[nH]cc1F [FLUCYTOSINE]	6.3 (≈ 48.8 µM)	25 (≈ 194 µM)	3.2 (≈ 24.8 µM)	6.3 (≈ 48.8 µM)	6.3 (≈ 48.8 µM)	6.3 (≈ 48.8 µM)
CCc1ccn2c3c(c(C(C)=O)c2c1)C(=O)C(C)=C(C)C3=O	6.3 (≈ 21.3 µM)	3.2 (≈ 10.8 µM)	6.3 (≈ 21.3 µM)	1.6 (≈ 5.42 µM)	12.5 (≈ 42.3 µM)	3.2 (≈ 10.8 µM)
CCc1ccn2c3c(c(C(C)=O)c2c1)C(=O)c1ccccc1C3=O	25 (≈ 78.8 µM)	12.5 (≈ 39.4 µM)	50 (≈ 158 µM)	25 (≈ 78.8 µM)	> 100	50 (≈ 158 µM)
CCOC(=O)c1c2c(n3ccccc13)C(=O)C(C)=C(C)C2=O	6.3 (≈ 21.2 µM)	3.2 (≈ 10.8 µM)	12.5 (≈ 42 µM)	6.3 (≈ 21.2 µM)	6.3 (≈ 21.2 µM)	3.2 (≈ 10.8 µM)
CCc1ccn2c3c(c(C)c2c1)C(=O)c1ccccc1C3=O	6.3 (≈ 21.8 µM)	3.2 (≈ 11.1 µM)	12.5 (≈ 43.2 µM)	50 (≈ 173 µM)	12.5 (≈ 43.2 µM)	6.3 (≈ 21.8 µM)
OC(Cn1cncn1)(Cn1cncn1)c1ccc(F)cc1F [FLUCONAZOLE]	6.3 (≈ 20.6 µM)	25 (≈ 81.6 µM)	50 (≈ 163 µM)	6.3 (≈ 20.6 µM)	3.2 (≈ 10.4 µM)	25 (≈ 81.6 µM)
COc1ccn2c3c(c(C)c2c1)C(=O)c1ccccc1C3=O	25 (≈ 85.8 µM)	50 (≈ 172 µM)	25 (≈ 85.8 µM)	25 (≈ 85.8 µM)	> 100	50 (≈ 172 µM)
CC1=C(C)C(=O)c2c(cc3cc(C)ccn23)C1=O	6.3 (≈ 26.3 µM)	1.6 (≈ 6.69 µM)	12.5 (≈ 52.2 µM)	12.5 (≈ 52.2 µM)	6.3 (≈ 26.3 µM)	12.5 (≈ 52.2 µM)
CCOC(=O)c1c2c(n3ccc(OC)cc13)C(=O)c1ccccc1C2=O	3.2 (≈ 9.16 µM)	12.5 (≈ 35.8 µM)	12.5 (≈ 35.8 µM)	6.3 (≈ 18 µM)	25 (≈ 71.6 µM)	25 (≈ 71.6 µM)
COc1cc[n+](C2=C(Cl)C(=O)C(C)=C(C)C2=O)cc1.[Cl-]	6.3	25	25	25	100	12.5
CCc1ccn2c3c(c(C(=O)OC)c2c1)C(=O)c1ccccc1C3=O	12.5 (≈ 37.5 µM)	25 (≈ 75 µM)	6.3 (≈ 18.9 µM)	3.2 (≈ 9.6 µM)	12.5 (≈ 37.5 µM)	50 (≈ 150 µM)
CCOC(=O)c1c2c(n3ccc(CC)cc13)C(=O)c1ccccc1C2=O	25 (≈ 72 µM)	50 (≈ 144 µM)	25 (≈ 72 µM)	> 100	50 (≈ 144 µM)	> 100
COC(=O)c1c2c(n3ccc(C)cc13)C(=O)C(C)=C(C)C2=O	25 (≈ 84.1 µM)	3.2 (≈ 10.8 µM)	6.3 (≈ 21.2 µM)	6.3 (≈ 21.2 µM)	6.3 (≈ 21.2 µM)	6.3 (≈ 21.2 µM)
Cc1ccn2c3c(c(C)c2c1)C(=O)c1ccccc1C3=O	12.5 (≈ 45.4 µM)	25 (≈ 90.8 µM)	6.3 (≈ 22.9 µM)	3.2 (≈ 11.6 µM)	12.5 (≈ 45.4 µM)	50 (≈ 182 µM)
